Experimental data reported in patent publication US10016373B2, “CB2 receptor ligands for the treatment of psychiatric disorders” (priority 2013, dated 2018).
Where two headings read alike, the source gives them in different places.

Assays:
mice [1] = test: Vocal tics, ultrasonic voice recording; assay type: in vivo
Method: Mice were recorded at the age of 13 or 23-25 weeks with an ultrasonic voice recorder (Noldus). Mice were recorded at the age of 29 days with an ultrasonic voice recorder (AviSoft). Single mice were recorded in a cage for 10 min (according to sex and type of treatment). The number and duration of events at 20-40 kHz and at 50-70 kHz were analyzed. In some experiments, 24 h following M1 treatment, each mouse was recorded for 10 min before and after stress. Stress was induced by incubation for 10-15 min in a mouse restrainer.

mice [2] = test: Prepulse inhibition (PPI) of the startle reflex; assay type: in vivo
Method: Attention Test: Prepulse Inhibition (PPI) of the Startle Reflex
A weak audible stimulus (74-90 dB tone) “prepulse” was used to inhibit the acoustic startle response to a subsequent strong audible stimulus (120 dB tone) “pulse”. Reduced prepulse inhibition of the startle reflex (PPI) was taken as an index of the positive symptoms of deficits in attention.
PPI was assessed similarly to the method described by Varty et al. (2001). Mice were placed in a startle chamber and allowed to acclimatize for 5 minutes A loudspeaker produced startling “pulse” at 120 dB and thereafter 65 dB background white noise or one of […] 20 ms duration “prepulses” at 74, 78, 82, 86, and 90 dB followed after 20 ms by a 40 ms startling “pulse” at 120 dB. The response of each mouse was recorded and stored by a computer. Each test session lasted for 11 minutes and consisted of 5 presentations of each of the prepulse/pulse sound stimuli (total of 30 or 35) presented in random order and separated by 15 second intervals. The magnitude of prepulse inhibition was calculated as percentage PPI=[1-(acoustic startle for prepulse+pulse)/(acoustic startle for pulse alone)]×100.

osteoclastogenesis = conditions: Schuehly et al. 2011; cited from earlier work
Body weight = assay type: in vivo; conditions: postnatal day 100; mice treated with 0.5 mg/kg CB2 agonist2; FIG. 16C
mice [3] = test: Impulsivity, Elevated Plus Maze; assay type: in vivo; conditions: CB2 agonist2 model mice at 13 weeks, M1 5 mg/kg i.p. 24 hours before the test
Method: The treatment consisted of a single intravenous administration of the vehicle or the M1 solution Impulsivity was tested 24 hours after treatment.
Impulsivity as measured by the paucity of time spent on the two anxiety-provoking, open arms (as opposed to the two enclosed arms) of an “Elevated Plus Maze” was used as a parameter of negative symptoms of schizophrenia (Josselyn and Vaccarino, 1998). The plus maze was elevated 50 cm above the table top. Behavior of each mouse was recorded for 5 minutes by a video camera and scored using the “EthoVision” software (Noldus), measuring the number of entries as well as the amount of time spent in each arm, open or closed. Reduced time spent in the closed arms indicated reduced anxiety. Increased time spent in the opened arms indicated increased risk behavior (hyperactive and impulsive).
The treatment consisted of a single i.p. administration of the vehicle or the M1 solution. The duration ratio open arm/close arm and the frequency ratio open arm/close arm in the Elevated Plus Maze were evaluated 24 hours after treatment with either vehicle or M1.

presenilin 2 mutant mice = conditions: cited from earlier work
mice [4] = assay type: in vivo
Method: For the treated mice, one of the two CB2 receptor-selective agonist solutions: either CB2 agonist2 solution or H-308 solution, was administered by intravenous administration to mice pups to induce ADHD-like behavior and/or obsessive-compulsive-like behavior as a murine model for ADHD and OCD. […] In order to test the effect of non-agonist or mixed-type agonist/inverse agonist CB2 receptor ligands on hyperactivity, the effects of M1 were studied.
Open-Field Test (Crossing and Rearing, Defecation, Grooming)
Mice were assessed for hyperactive behavior on postnatal days 16-20, 26-39, at age 13 weeks and at age 23 weeks. Mice were placed in the center of a transparent glass cage 30×40×31 cm divided into squares of 7.5×7.5 cm. The number of squares crossed and the rearing activity were evaluated for 8 min.

[5] = tested on: mouse model of Alzheimer's disease; conditions: orally administered, Lee et al. 2012; cited from earlier work
CB2 receptor [6] = target: T1, CB2 receptor (Homo sapiens, UniProt P34972); conditions: cited from earlier work
T1 construct: expressed in transfected cells; host or cells: CHO cells
T1 sequence (P34972 whole entry): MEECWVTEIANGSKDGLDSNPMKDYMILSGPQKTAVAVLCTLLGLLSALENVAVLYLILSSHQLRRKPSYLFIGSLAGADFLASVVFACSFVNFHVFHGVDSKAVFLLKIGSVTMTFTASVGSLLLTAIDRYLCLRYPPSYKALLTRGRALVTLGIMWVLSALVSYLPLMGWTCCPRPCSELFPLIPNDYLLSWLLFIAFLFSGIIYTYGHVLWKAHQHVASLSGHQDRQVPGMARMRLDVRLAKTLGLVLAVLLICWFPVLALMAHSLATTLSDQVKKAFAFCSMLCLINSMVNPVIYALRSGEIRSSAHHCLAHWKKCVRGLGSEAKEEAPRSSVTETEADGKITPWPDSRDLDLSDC

CB2 receptor [7] = target: T1, CB2 receptor; conditions: cited from earlier work; remark: listed apart in the source
[8] = CB2 receptor, Schuehly et al. 2011

In the case of `C=CCc1ccc(O)c(-c2ccc(OC)c(CC=C)c2)c1` [M1, 2-(4-Methoxy-3-prop-2-enylphenyl)-4-prop-2-enylphenol], the “number of vocal events” value (mice [1]; 20-40 KHz, day 29, female mice, CB2 agonist2 0.5 mg/kg at the age of 3-15 days, M1 5 mg/kg on day 29, FIG. 14A) is reported as “reversed”, the duration of vocals (mice [1]; 20-40 KHz, day 29, female mice, CB2 agonist2 0.5 mg/kg at the age of 3-15 days, M1 5 mg/kg on day 29, FIG. 14B) is reported as “reversed” and the “number of vocal events” value (mice [1]; female mice 23-25 weeks, 20-40 KHz, stress, CB2 agonist2 5 mg/kg postnatal days 5-13, M1 given to model mice, FIG. 7A) is reported as “reversed”. The “total duration of vocal events” value (mice [1]; female mice 23-25 weeks, 20-40 KHz, stress, CB2 agonist2 5 mg/kg postnatal days 5-13, M1 given to model mice, FIG. 7B) was “reversed”, the “mean duration of vocal events” value (mice [1]; female mice 23-25 weeks, 20-40 KHz, stress, CB2 agonist2 5 mg/kg postnatal days 5-13, M1 given to model mice, FIG. 7C) was “reversed” and the “number of vocal events” value (mice [1]; female mice 23-25 weeks, 50-70 KHz, stress, CB2 agonist2 5 mg/kg postnatal days 5-13, M1 given to model mice, FIG. 8A) was “reversed”. For the same compound, the “total duration of vocal events” value (mice [1]; female mice 23-25 weeks, 50-70 KHz, stress, CB2 agonist2 5 mg/kg postnatal days 5-13, M1 given to model mice, FIG. 8B) was “reversed”, the “mean duration of vocal events” value (mice [1]; female mice 23-25 weeks, 50-70 KHz, stress, CB2 agonist2 5 mg/kg postnatal days 5-13, M1 given to model mice, FIG. 8C) was “reversed” and the “total duration of vocal events” value (mice [1]; male mice 23-25 weeks, 20-40 KHz, before stress, CB2 agonist2 5 mg/kg postnatal days 5-13, M1 given to model mice, FIG. 9A) was “reversed”. The “mean duration of vocal events” value (mice [1]; male mice 23-25 weeks, 20-40 KHz, before stress, CB2 agonist2 5 mg/kg postnatal days 5-13, M1 given to model mice, FIG. 9B) was “reversed”, the “total duration of vocal events” value (mice [1]; male mice 23-25 weeks, 50-70 KHz, before stress, CB2 agonist2 5 mg/kg postnatal days 5-13, M1 given to model mice, FIG. 10A) was “reversed” and the “mean duration of vocal events” value (mice [1]; male mice 23-25 weeks, 50-70 KHz, before stress, CB2 agonist2 5 mg/kg postnatal days 5-13, M1 given to model mice, FIG. 10B) was “reversed”. For the same compound, the “response to pre-pulse tone” value (mice [2]; mice treated with 0.5 mg/kg CB2 agonist2, FIG. 15B) was “reversed”, the “response to the startle tone of 120 dB” value (mice [2]; postnatal day 100, 0.5 mg/kg CB2 agonist2 mice, at the beginning of the experiment, FIG. 16A) was “no effect” and the “response to 120 dB” value (mice [2]; postnatal day 100, 0.5 mg/kg CB2 agonist2 mice, re-evaluated at the end of the experiment, FIG. 16B) was “reversed”. For the same compound, the “% PPI (pre-pulse inhibition)” value (mice [2]; postnatal day 100, mice treated with 0.5 mg/kg CB2 agonist2, FIG. 15A) was “reversed”, the osteoclastogenesis (osteoclastogenesis) was “potently inhibits” and the body weight (Body weight) was “no effect”. For the same compound, the impulsive/hyperactive behavior (mice [3]) was “reversed”, the memory impairment (presenilin 2 mutant mice) was “attenuates” and the grooming (mice [4]; CB2 agonist2 0.5 mg/kg at the age of 3-15 days, M1 5 mg/kg on day 29, measured on day 39, stressed female mice, FIG. 13A) was “reversed”. For the same compound, the feces secretion (mice [4]; CB2 agonist2 0.5 mg/kg at the age of 3-15 days, M1 5 mg/kg on day 29, measured on day 39, stressed female mice, FIG. 13B) was “reversed”, the rearing (mice [4]; CB2 agonist2 0.5 mg/kg at the age of 3-15 days, M1 on day 29, measured on day 36, unstressed female mice, FIG. 12A) was “reversed” and the ambulation (mice [4]; CB2 agonist2 0.5 mg/kg at the age of 3-15 days, M1 on day 29, measured on day 39, stressed female mice, FIG. 12B) was “reversed”. For the same compound, the ambulation (mice [4]; CB2 agonist2 0.5 mg/kg model, M1 injected on day 29, measured the same day, stressed females, FIG. 11B) was “reversed”, the rearing (mice [4]; CB2 agonist2 0.5 mg/kg model, M1 injected on day 29, measured the same day, stressed females, FIG. 11D) was “reversed” and the hyperactivity (mice [4]; age of 3 months, 0.1 mg/kg HU-308, M1 5 mg/kg in gavage 30 minutes before the experiment, FIGS. 17A-B) was “reversed”. The oral availability (mice [4]; inferred from efficacy of M1 5 mg/kg given in gavage) was “orally available”, the ambulation (mice [4]; model mice 5 mg/kg CB2 agonist2 postnatal days 1-5, M1 5 mg/kg single i.p. at 13 weeks, 30 minutes after treatment, FIG. 5A) was “reversed” and the rearing (mice [4]; model mice 5 mg/kg CB2 agonist2 postnatal days 1-5, M1 5 mg/kg single i.p. at 13 weeks, 30 minutes after treatment, FIG. 5B) was “reversed”. For the same compound, the secretion of feces (mice [4]; model mice 5 mg/kg CB2 agonist2 postnatal days 5-13, M1 5 mg/kg single i.p. at 23 weeks, FIG. 4C) was “reversed”, the grooming duration (mice [4]; model mice 5 mg/kg CB2 agonist2 postnatal days 5-13, M1 5 mg/kg single i.p. at 23 weeks, tested 48 hours after treatment, FIG. 4A) was “reversed” and the grooming frequency (mice [4]; model mice 5 mg/kg CB2 agonist2 postnatal days 5-13, M1 5 mg/kg single i.p. at 23 weeks, tested 48 hours after treatment, FIG. 4B) was “reversed”. The “amyloidogenesis and progression of AD” value [5] was “prevent”, the “activity via cAMP pathway” value (CB2 receptor [6]; [8]) was “inverse agonism” and the cAMP production (CB2 receptor [6]; known dual effects of M1) was “increasing”. For the same compound, the “activity via Ca2+ pathway” value (CB2 receptor [7]; [8]) was “partial agonism” and the “intracellular Ca2+ concentration” value (CB2 receptor [7]; known dual effects of M1) was “increasing”.
